“Also recorded” adds a separate entry of the source.
Assays:
[1] = tested on: retina; assay: Intraocular injection in Brown Norway rats (gain of function mutation in the MR gene): CSCR-like retinal pathology; assay type: in vivo; conditions: FIGS. 1 and 2
[2] = tested on: AQP4; assay: AQP4 mRNA expression in RMG cells (Example 2); assay type: cell-based
Source text: We have performed several experiments.

[3] = tested on: Kir4.1; assay: Kir4.1 expression (real-time PCR, western blot) in rat RMG primary cultures and retinal explants; assay type: cell-based
Description: (§1) Rat RMG cells were obtained as described (deKozak, Y., Naud, M. C., Bellot, J., Faure, J. P., and Hicks, D. (1994) Differential tumor necrosis factor expression by resident retinal cells from experimental uveitis-susceptible and -resistant rat strains. J Neuroimmunol 55, 1-9). Briefly, rats at postnatal (PN) day 17 (when RMG cells are mature) were sacrificed and eyes enucleated. Intact eyeballs were maintained in DMEM overnight at room temperature in the dark, and then incubated 45 min with 2 mg/ml trypsin/collagenase I at 37° C. The neural retinas were separated from the lens and vitreous, cut into small fragments and plated in Petri dishes containing DMEM supplemented with 10% FCS, 100 units/ml penicillin, 100 µg/ml streptomycin, and 0.2% amphotericin B. Cultures were maintained at 37° C. in a humidified atmosphere containing 5% CO2. After 5 to 6 days, the cultures were washed extensively with medium so that only a strongly adherent flat cell population remained.
(§2) Müller cells were seeded in 6-well tissue culture plates (Becton Dickinson, Le Pont de Claix, France). Rat PN17 RMG cells were maintained in their initial Petri dishes. Sub confluent (80%) cells were incubated in media supplemented with 10% steroid-free (charcoal treated) FCS for 24 hrs. Corticosteroid (Sigma-Aldrich, Saint Quentin Fallavier, France) treatments were then applied respectively for a further 24 hrs: 10 nM aldosterone, 10 nM aldosterone plus 1).IM RU38486 (GR-specific antagonist), 10 nM aldosterone plus 1 µM RU26752 (MR-specific antagonist) or 1 µM dexamethasone. The steroids were previously dissolved in 2% steroid-free FCS media containing 0.1% ethanol. Control cells were treated with 0.1% ethanol in media.
(§3) After enucleation, rat retinas were isolated immediately under aseptic conditions and cut into 4 pieces. They were then transferred onto a Cyclopore 0.2).Im polycarbonate membrane (Whatman, Maidstone, England), and flatmounted with the vitreal side up. The support membranes were placed in 6-well tissue culture plates containing 2 ml DMEM supplemented with 10% steroid-free FCS, 1% penicillin-streptomycin and 0.1% amphotericin B. Explants were treated with corticosteroids as described for cultured cells. Similarly, the dose-dependent effect of aldosterone (0.1-100 nM) was analyzed on retinal explants in separate experiments.
(§4) Total RNA was isolated from the treated RMG cells and retinal explants using RNeasy Mini Kit (Qiagen, Courtaboeuf, France). First-strand cDNA was synthesized after DNase I (Qiagen) treatment using random primers (Invitrogen) and superscript II reverse transcriptase (Invitrogen). Transcript levels of ENaC-a, Kir4.1 and AQP4 were analyzed by real-time PCR performed in 7500 Real-Time PCR System (Applied Biosystems, Foster City, Calif., USA) with either TaqMan® (Applied Biosystems) or SYBR® Green (Invitrogen, Cergy Pontoise, France) detection. The 18S was used as internal control.
(§5) Retinal explants were homogenized in Np40 buffer in the presence of protease inhibitors. The protein concentration was determined by the Bradford method. Equal amounts of protein (12 .ug) were separated on Novex® 4%-12% Tris-Glycine gel (Invitrogen), transferred to nitrocellulose, and the blots were incubated with primary antibodies at 4° C. overnight. The membranes were washed, incubated with horse radish peroxidase conjugated goat anti-rabbit IgG (1:3000, Vector, AbCys, Paris, France) for 1 hr at room temperature, and developed using ECL Plus western blotting detection reagents (GE healthcare, Orsay, France). The j3-actin was used as internal control. The following primary antibodies were used: rabbit anti-alpha ENaC (1:500, Abcam, Cambridge, Mass., USA), rabbit anti-Kir4.1 (1:400, Alomone Labs, Jerusalem, Israel), rabbit anti-AQP4 (1:750, Millipore, St Quentin en Yvelines, France) and rabbit anti-j3-actin (1:1000, Abcam)

[4] = tested on: Kir4.1; assay: Kir4.1 immunofluorescence in retina of aldosterone-injected eyes; assay type: in vivo, Lewis rats; conditions: intravitreous aldosterone vs sham-injected
Description: Anesthesia of rats was induced by intramuscular injection of ketamine (100 mg/kg, Virbac, Carros, France) and chlorpromazine (0.65 mg/kg, LARGACTIL®, Sanofi Aventis, Livron sur Drome, France). Intravitreous injections were performed using microfine (300 μl) syringes with 30 G needles under topical anesthesia (tetracaine 1%, Aldrich, Lyon, France). Rat eyes were injected with 5 μl aldosterone diluted in 0.9% saline to obtain a concentration of 200 nM for injection, corresponding to a final concentration of 20 nM in the vitreous. Control rat eyes were injected with 5 μl saline. Twenty-four hrs after injection, rats were sacrificed. Eyes were then removed for retinal flat mounting, immunohistochemistry and morphological analysis respectively.
Eyes were snap frozen in Tissue-Tek OCT-compound (Bayer Diagnostics, Puteaux, France). Ten μm cryostat sections of rat eyes were fixed in 4% PFA for 15 min and permeabilized with 0.1% Triton X-I00 for 30 min. Unspecific binding sites were blocked with 5% normal goat serum for 1 hr. The sections were then incubated with primary antibodies for 1 hr at room temperature, washed in PBS, and further incubated with secondary antibodies for 1 hr. […] Images were taken using a fluorescence microscope (Olympus BX51, Rungis, France) equipped with a CCD camera (Olympus DP70). […]

[5] = tested on: AQP4; assay: AQP4 expression (real-time PCR, western blot) in rat RMG primary cultures and retinal explants; assay type: cell-based
Description: as §1, §2, §3, §4, §5

[6] = dose-dependent effect, retinal explants

C[C@]12CCC(=O)C=C1CC[C@@H]1[C@@H]2[C@@H](O)C[C@]2(C=O)[C@@H](C(=O)CO)CC[C@@H]12 [aldosterone]
retinal pathology after intraocular injection [1]: develop a retinal pathology similar to CSCR; also recorded: vasodilation of choroid vessels, rupture of the junction between RPE cells, swallowing of the photoreceptor segments and sub retinal fluid accumulation; also recorded: develop a retinal pathology very close to CSCR | expression of the water channel AQP4 [2]: up-regulates | Kir4.1 expression (transcripts) ([3]; 24 hrs treatment, rat RMG primary cultures and retinal explants): up-regulate | expression of potassium channel Kir4.1 ([3]; aldosterone 24 hrs): 1.9 fold | aldosterone concentration at which increase in Kir4.1 transcripts is fully saturated [3, 6]: 10 nM | Kir4.1 expression at the protein level ([3]; western blot): up-regulated | Kir4.1 localization in retina [4]: additional localization; also recorded: enhanced Kir4.1 immunofluorescence in the RMG apical microvilli in the OLM; also recorded: additional mislocalization | AQP4 mRNA expression ([5]; 24 hrs treatment, RMG primary cultures or retinal explants): increase | aquaporin 4 (AQP4) up-regulation ([5]; aldosterone 24 hrs): 2.9 fold | aldosterone concentration at which increase in AQP4 mRNA is saturated [5, 6]: 10 nM | expression of aquaporin 4 (AQP4) ([5]; normal rat, 24 hours exposure, low aldosterone dose (1-10 nM)): enhances the expression | AQP4 expression at the protein level ([5]; western blot): increases
